The results in this text go back to the NIST ThermoML archive (doi:10.1021/je050473r).

Numbers after ± are expanded uncertainties.

For this data set the following is noted: Liquid.
The mark [1] stands for this setting: 303.15 K, Closed cell (Static) method.
The mark [2] stands for this setting: 353.15 K, Closed cell (Static) method.
Where [3] appears, read: 373.1 K, Closed cell (Static) method.
Setting [4] is: 413.15 K, Closed cell (Static) method.

In general, vapor or sublimation pressure refers to the pressure of vapour in equilibrium with the condensed phase.

For `ClCCCl` [1,2-dichloroethane], the “vapor or sublimation pressure” value was 13.28 ± 1 kPa under setting [1] and 90.9 ± 1 kPa under setting [2].

As to `CC(C)CC(C)(C)C` [2,2,4-trimethylpentane], the “vapor or sublimation pressure” value was 103.49 ± 1.1 kPa under setting [3] and 282.8 ± 1.4 kPa under setting [4].

On to `CCc1cccs1` [2-ethylthiophene], for which the “vapor or sublimation pressure” value is, setting by setting: under setting [3], 33.26 ± 1 kPa; under setting [4], 111.4 ± 1.1 kPa.

For the molecule `Cc1cccs1` [2-methylthiophene], the “vapor or sublimation pressure” value is recorded as 69.87 ± 1.1 kPa under setting [3] and 209.8 ± 1.2 kPa under setting [4].

As for `Cl/C=C/Cl` [(E)-1,2-dichloroethene], the “vapor or sublimation pressure” value stood at 53.33 ± 1.1 kPa under setting [1] and 269.9 ± 1.3 kPa under setting [2].

For `N#CC1CC1` [cyclopropanecarbonitrile], the “vapor or sublimation pressure” value came out at 35.2 ± 1 kPa (373.1 K) and 102.2 ± 1.2 kPa (408.15 K).

Regarding `C=CCCCCCC` [oct-1-ene], the “vapor or sublimation pressure” value is 53.82 ± 1.1 kPa under setting [3] and 165.9 ± 1.2 kPa under setting [4].

With `O` [water], the “vapor or sublimation pressure” value is on record as 101.4 ± 1.3 kPa (373.1 K) and 312.4 ± 2.1 kPa (408.15 K).
